# Experimental data published in ChEMBL document CHEMBL4828725 (Eur J Med Chem, 2021).
# What was measured:
# Helix pomatia = assay: Inhibition of snail beta-mannosidase using p-nitrophenyl glycoside as substrate assessed as release of p-nitrophenol at 1000 uM measured by spectrometric assay relative to control
# [1] = Inhibition of almond beta-glucosidase using p-nitrophenyl glycoside as substrate assessed as release of p-nitrophenol measured by spectrometric assay; set-up: species or system Prunus dulcis
# [2] = target: Beta-glucuronidase (Escherichia coli (strain K12)) (UniProt P05804); assay: Inhibition of Escherichia coli beta-glucuronidase using p-nitrophenyl glycoside as substrate assessed as release of p-nitrophenol at 1000 uM measured by spectrometric assay relative to control
# Bos taurus [3] = species: Bos taurus; assay: Inhibition of bovine liver beta-glucosidase using p-nitrophenyl glycoside as substrate assessed as release of p-nitrophenol at 1000 uM measured by spectrometric assay relative to control; format: tissue-based
# [4] = Inhibition of rat intestinal maltase using maltose as substrate assessed as release of D-glucose measured by spectrometric assay
# [5] = target: T1, Sucrase-isomaltase, intestinal (Rattus norvegicus, UniProt P23739); assay: Inhibition of rat intestinal sucrase using p-nitrophenyl glycoside as substrate assessed as release of p-nitrophenol measured by spectrometric assay
# [6] = target: T2, Alpha-mannosidase (Canavalia ensiformis) (UniProt C0HJB3); assay: Inhibition of jack bean alpha-mannosidase using p-nitrophenyl glycoside as substrate assessed as release of p-nitrophenol at 1000 uM measured by spectrometric assay relative to control
# T2 sequence (whole entry): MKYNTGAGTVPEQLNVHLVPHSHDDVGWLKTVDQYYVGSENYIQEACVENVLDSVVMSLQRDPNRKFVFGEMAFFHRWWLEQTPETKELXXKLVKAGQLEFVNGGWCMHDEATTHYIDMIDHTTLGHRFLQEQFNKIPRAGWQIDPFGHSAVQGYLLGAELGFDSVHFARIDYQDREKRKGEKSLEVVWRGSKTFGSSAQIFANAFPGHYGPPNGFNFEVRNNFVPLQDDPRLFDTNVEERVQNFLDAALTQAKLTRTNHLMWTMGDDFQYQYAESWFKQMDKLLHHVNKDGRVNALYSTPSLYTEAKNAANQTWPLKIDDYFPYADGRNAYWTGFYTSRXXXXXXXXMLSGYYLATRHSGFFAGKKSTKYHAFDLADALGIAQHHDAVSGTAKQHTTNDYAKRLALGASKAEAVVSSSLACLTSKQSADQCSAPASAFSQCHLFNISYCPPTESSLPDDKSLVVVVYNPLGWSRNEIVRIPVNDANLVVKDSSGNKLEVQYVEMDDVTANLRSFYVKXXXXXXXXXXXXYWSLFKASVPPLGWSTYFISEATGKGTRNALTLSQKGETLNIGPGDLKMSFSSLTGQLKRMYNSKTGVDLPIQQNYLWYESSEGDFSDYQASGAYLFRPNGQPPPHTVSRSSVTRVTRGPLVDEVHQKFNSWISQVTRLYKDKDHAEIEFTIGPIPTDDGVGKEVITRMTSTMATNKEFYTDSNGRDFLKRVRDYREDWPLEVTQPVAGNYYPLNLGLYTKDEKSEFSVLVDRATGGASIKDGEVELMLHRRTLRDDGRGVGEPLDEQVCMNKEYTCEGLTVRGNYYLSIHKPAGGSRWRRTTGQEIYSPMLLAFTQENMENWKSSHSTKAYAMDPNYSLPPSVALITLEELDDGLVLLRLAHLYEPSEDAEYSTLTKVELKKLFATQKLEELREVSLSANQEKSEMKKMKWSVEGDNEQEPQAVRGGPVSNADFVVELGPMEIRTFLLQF
# Prunus dulcis = assay: Inhibition of almond beta-glucosidase using p-nitrophenyl glycoside as substrate assessed as release of p-nitrophenol at 1000 uM measured by spectrometric assay relative to control
# Bos taurus [7] = species: Bos taurus; assay: Inhibition of bovine liver beta-galactosidase using p-nitrophenyl glycoside as substrate assessed as release of p-nitrophenol at 1000 uM measured by spectrometric assay relative to control
# Rattus norvegicus = species: Rattus norvegicus; assay: Inhibition of rat intestinal maltase using maltose as substrate assessed as release of D-glucose at 1000 uM measured by spectrometric assay
# [8] = target: T3, Tissue alpha-L-fucosidase (Bos taurus) (UniProt Q2KIM0); assay: Inhibition of bovine kidney alpha-L-fucosidase using p-nitrophenyl glycoside as substrate assessed as release of p-nitrophenol at 1000 uM measured by spectrometric assay relative to control; format: tissue-based
# T3 sequence (whole entry): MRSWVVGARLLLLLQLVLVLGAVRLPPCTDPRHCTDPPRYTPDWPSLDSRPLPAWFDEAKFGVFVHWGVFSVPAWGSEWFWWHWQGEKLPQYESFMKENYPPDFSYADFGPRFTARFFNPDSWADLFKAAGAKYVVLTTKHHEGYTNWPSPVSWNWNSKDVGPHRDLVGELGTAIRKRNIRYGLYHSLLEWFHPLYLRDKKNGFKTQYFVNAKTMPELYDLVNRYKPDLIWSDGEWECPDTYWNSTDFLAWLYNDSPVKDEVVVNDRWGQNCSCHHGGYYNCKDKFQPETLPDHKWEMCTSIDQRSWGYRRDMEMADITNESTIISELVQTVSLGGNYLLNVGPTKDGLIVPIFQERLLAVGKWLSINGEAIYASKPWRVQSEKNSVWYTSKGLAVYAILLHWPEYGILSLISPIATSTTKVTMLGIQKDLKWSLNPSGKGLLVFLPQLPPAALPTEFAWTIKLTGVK
# [9] = target: Alpha-galactosidase (Coffea arabica) (UniProt Q42656); assay: Inhibition of coffee beans alpha-galactosidase using p-nitrophenyl glycoside as substrate assessed as release of p-nitrophenol at 1000 uM measured by spectrometric assay relative to control
# [10] = Inhibition of Aspergillus niger amyloglucosidase using p-nitrophenyl glycoside as substrate assessed as release of p-nitrophenol measured by spectrometric assay
# Penicillium decumbens = assay: Inhibition of Penicillium decumbens alpha-L-rhamnosidase using p-nitrophenyl glycoside as substrate assessed as release of p-nitrophenol at 1000 uM measured by spectrometric assay relative to control
# [11] = Inhibition of jack bean alpha-mannosidase using p-nitrophenyl glycoside as substrate assessed as release of p-nitrophenol measured by spectrometric assay; set-up: species or system Canavalia ensiformis
# [12] = Inhibition of rice alpha-glucosidase using p-nitrophenyl glycoside as substrate assessed as release of p-nitrophenol measured by spectrometric assay; set-up: species or system Oryza sativa; conditions: read-out: IC50
# [13] = Inhibition of bovine liver beta-glucosidase using p-nitrophenyl glycoside as substrate assessed as release of p-nitrophenol measured by spectrometric assay; set-up: species or system Bos taurus
# [14] = target: T4, Tissue alpha-L-fucosidase (Bos taurus, UniProt Q2KIM0); assay: Inhibition of bovine kidney alpha-L-fucosidase using p-nitrophenyl glycoside as substrate assessed as release of p-nitrophenol measured by spectrometric assay
# T4 sequence (Q2KIM0 whole entry): T3 sequence (whole entry)
# [15] = Inhibition of snail beta-mannosidase using p-nitrophenyl glycoside as substrate assessed as release of p-nitrophenol measured by spectrometric assay; set-up: species or system Helix pomatia
# Beta-glucuronidase = Beta-glucuronidase (Escherichia coli (strain K12), UniProt P05804); assay: Inhibition of Escherichia coli beta-glucuronidase using p-nitrophenyl glycoside as substrate assessed as release of p-nitrophenol measured by spectrometric assay
# Sus scrofa = species: Sus scrofa; assay: Inhibition of porcine kidney alpha-trehalase using p-nitrophenyl glycoside as substrate assessed as release of p-nitrophenol at 1000 uM measured by spectrometric assay relative to control
# [16] = Inhibition of Penicillium decumbens alpha-L-rhamnosidase using p-nitrophenyl glycoside as substrate assessed as release of p-nitrophenol measured by spectrometric assay
# Alpha-galactosidase = Alpha-galactosidase (Coffea arabica, UniProt Q42656); assay: Inhibition of coffee beans alpha-galactosidase using p-nitrophenyl glycoside as substrate assessed as release of p-nitrophenol measured by spectrometric assay
# Aspergillus niger = assay: Inhibition of Aspergillus niger amyloglucosidase using p-nitrophenyl glycoside as substrate assessed as release of p-nitrophenol at 1000 uM measured by spectrometric assay relative to control
# [17] = Inhibition of porcine kidney alpha-trehalase using p-nitrophenyl glycoside as substrate assessed as release of p-nitrophenol measured by spectrometric assay; set-up: species or system Sus scrofa
# [18] = target: T1, Sucrase-isomaltase, intestinal; assay: Inhibition of rat intestinal isomaltase using p-nitrophenyl glycoside as substrate assessed as release of p-nitrophenol measured by spectrometric assay
# [19] = Inhibition of bovine liver beta-galactosidase using p-nitrophenyl glycoside as substrate assessed as release of p-nitrophenol measured by spectrometric assay; format: tissue-based, Bos taurus
# Sequence of Alpha-galactosidase (Coffea arabica) (Q42656 16-378 limits assumed): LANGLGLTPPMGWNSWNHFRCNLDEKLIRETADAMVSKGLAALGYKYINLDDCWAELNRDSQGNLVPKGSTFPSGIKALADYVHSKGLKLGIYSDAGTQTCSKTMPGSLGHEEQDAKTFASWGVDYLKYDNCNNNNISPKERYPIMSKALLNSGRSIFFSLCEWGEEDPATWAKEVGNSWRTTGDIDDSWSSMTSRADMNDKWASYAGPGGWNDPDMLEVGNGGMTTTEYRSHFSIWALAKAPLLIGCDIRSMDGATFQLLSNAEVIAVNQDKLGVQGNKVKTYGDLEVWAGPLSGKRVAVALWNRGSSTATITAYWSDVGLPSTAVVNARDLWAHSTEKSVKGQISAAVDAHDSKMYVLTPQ
# Sequence of Beta-glucuronidase (P05804 whole entry): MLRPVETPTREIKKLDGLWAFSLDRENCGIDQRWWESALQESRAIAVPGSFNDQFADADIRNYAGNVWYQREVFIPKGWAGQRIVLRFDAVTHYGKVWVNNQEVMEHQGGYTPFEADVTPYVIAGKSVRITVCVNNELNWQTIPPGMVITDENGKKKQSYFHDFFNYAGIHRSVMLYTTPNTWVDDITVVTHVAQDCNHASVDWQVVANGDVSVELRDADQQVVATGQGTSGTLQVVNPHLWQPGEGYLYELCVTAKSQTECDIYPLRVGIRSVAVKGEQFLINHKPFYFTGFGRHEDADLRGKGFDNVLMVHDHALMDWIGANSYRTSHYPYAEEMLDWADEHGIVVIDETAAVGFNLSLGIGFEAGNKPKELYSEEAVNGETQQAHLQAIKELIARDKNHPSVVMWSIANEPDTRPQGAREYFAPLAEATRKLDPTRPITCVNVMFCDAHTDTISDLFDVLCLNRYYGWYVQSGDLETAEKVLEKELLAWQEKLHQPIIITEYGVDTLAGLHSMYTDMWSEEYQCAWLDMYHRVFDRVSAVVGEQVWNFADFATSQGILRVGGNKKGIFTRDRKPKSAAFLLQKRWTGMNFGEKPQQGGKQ
# Sequence of Beta-glucuronidase (Escherichia coli (strain K12)) (P05804 whole entry, looked up): as the sequence (P05804 whole entry) above
# T1 sequence (P23739 1-1013 limits assumed): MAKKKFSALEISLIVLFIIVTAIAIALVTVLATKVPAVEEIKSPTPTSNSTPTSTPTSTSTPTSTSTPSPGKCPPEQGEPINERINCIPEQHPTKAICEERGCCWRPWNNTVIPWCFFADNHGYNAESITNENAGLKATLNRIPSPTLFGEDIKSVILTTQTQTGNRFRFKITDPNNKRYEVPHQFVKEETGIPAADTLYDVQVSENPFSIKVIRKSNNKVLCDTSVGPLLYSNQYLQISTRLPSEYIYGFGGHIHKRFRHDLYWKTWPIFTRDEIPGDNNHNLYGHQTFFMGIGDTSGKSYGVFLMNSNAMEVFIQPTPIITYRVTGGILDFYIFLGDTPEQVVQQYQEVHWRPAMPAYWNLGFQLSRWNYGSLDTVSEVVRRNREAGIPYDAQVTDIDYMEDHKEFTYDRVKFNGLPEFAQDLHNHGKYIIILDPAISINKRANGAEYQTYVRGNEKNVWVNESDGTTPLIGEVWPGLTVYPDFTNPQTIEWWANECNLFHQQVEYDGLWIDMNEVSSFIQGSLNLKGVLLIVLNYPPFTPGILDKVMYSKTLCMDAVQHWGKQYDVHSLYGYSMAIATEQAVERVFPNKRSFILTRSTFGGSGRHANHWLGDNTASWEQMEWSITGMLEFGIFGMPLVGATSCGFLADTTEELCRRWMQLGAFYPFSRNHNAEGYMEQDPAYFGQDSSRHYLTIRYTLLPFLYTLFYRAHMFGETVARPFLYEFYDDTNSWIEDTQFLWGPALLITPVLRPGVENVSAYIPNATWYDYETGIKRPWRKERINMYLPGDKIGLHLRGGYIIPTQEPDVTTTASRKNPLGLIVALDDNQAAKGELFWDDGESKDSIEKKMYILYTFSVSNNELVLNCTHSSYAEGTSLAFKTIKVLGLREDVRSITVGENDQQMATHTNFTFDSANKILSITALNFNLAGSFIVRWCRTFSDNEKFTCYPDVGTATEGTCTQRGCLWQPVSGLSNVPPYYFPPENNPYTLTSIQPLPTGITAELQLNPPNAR
# T1 sequence (P23739 1014-1841 limits assumed): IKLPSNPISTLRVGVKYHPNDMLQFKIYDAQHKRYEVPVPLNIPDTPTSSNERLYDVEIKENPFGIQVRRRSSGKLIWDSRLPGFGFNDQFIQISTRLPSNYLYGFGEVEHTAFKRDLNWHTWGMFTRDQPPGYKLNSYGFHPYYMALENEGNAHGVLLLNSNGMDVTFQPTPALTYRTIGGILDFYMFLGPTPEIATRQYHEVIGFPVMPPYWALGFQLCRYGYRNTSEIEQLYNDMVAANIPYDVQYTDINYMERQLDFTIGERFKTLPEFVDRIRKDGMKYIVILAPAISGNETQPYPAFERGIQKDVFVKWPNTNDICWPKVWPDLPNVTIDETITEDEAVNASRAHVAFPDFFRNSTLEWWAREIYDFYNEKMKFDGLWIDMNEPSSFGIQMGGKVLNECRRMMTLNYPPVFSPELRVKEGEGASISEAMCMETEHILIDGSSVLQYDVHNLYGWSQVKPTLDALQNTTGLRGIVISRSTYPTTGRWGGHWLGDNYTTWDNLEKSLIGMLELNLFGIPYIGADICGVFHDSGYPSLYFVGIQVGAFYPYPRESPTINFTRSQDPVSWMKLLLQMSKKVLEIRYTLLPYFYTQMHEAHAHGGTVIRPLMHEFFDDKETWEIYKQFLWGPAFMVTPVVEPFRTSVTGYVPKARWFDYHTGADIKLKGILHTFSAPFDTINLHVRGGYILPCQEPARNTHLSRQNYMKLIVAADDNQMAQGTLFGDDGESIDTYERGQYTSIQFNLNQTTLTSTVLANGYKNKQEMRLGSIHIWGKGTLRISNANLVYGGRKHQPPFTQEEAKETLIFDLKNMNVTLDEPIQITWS
# Sequence of Alpha-galactosidase (Q42656 whole entry): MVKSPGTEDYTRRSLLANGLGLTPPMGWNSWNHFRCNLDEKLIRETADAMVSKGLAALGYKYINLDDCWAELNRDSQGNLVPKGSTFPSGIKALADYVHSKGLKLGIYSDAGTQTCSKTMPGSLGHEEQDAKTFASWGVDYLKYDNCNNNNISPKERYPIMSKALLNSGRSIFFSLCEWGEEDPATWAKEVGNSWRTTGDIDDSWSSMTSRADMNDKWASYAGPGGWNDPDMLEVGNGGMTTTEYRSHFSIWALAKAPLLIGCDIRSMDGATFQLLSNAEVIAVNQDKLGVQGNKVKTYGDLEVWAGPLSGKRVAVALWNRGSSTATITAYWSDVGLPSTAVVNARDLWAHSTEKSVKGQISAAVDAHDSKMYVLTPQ
inhibition (Helix pomatia),IC50 [1],inhibition [2],IC50 [4],inhibition [6],inhibition (Prunus dulcis),inhibition [8],inhibition [9],IC50 [10],inhibition (Penicillium decumbens),IC50 [11],IC50 [12],IC50 [14],IC50 [15],IC50 (Beta-glucuronidase),inhibition (Sus scrofa),IC50 [16],IC50 (Alpha-galactosidase),inhibition (Aspergillus niger),IC50 [17],further results,Structure (SMILES)
4%,Not Active,3.9%,156 µM,1.2%,4.4%,0%,1.7%,Not Active,0%,Not Active,48 µM,Not Active,Not Active,Not Active,5.3%,Not Active,Not Active,0%,Not Active,inhibition (Bos taurus [3]): 9.2%; IC50 [5]: Not Active; inhibition (Bos taurus [7]): 18.7%; inhibition (Rattus norvegicus): 15.1%; IC50 [13]: Not Active; IC50 [18]: Not Active; IC50 [19]: Not Active,CCCCC[C@@]1(CO)NC[C@H](O)[C@@H](O)[C@@H]1O.Cl
1.1%,Not Active,0.4%,6.6 µM,2.4%,6.2%,2.1%,3.5%,Not Active,0%,Not Active,14 µM,Not Active,Not Active,Not Active,1.5%,Not Active,Not Active,0%,Not Active,inhibition (Bos taurus [3]): 9.2%; IC50 ([5]; read-out: IC50): 8.8 µM; inhibition (Bos taurus [7]): 18.4%; IC50 [13]: Not Active; IC50 ([18]; read-out: IC50): 50 µM; IC50 [19]: Not Active,CC[C@@]1(CO)NC[C@H](O)[C@@H](O)[C@@H]1O.Cl
0%,Not Active,2.5%,19 µM,2.4%,6.9%,0%,8%,Not Active,0%,Not Active,9.9 µM,Not Active,Not Active,Not Active,4.2%,Not Active,Not Active,11.9%,Not Active,inhibition (Bos taurus [3]): 16.5%; IC50 ([5]; read-out: IC50): 89 µM; inhibition (Bos taurus [7]): 28.4%; IC50 [13]: Not Active; IC50 [18]: Not Active; IC50 [19]: Not Active,CCCCCCC[C@@]1(CO)NC[C@H](O)[C@@H](O)[C@@H]1O.Cl
2%,Not Active,17.7%,22 µM,9.6%,9.5%,13.8%,9.3%,Not Active,0%,Not Active,38 µM,Not Active,Not Active,Not Active,7.5%,Not Active,Not Active,2.7%,Not Active,inhibition (Bos taurus [3]): 3.6%; IC50 ([5]; read-out: IC50): 25 µM; inhibition (Bos taurus [7]): 14.1%; IC50 [13]: Not Active; IC50 [18]: Not Active; IC50 [19]: Not Active,C[C@@]1(CO)NC[C@H](O)[C@@H](O)[C@@H]1O.Cl
0%,Not Active,3.2%,263 µM,4.7%,8.8%,0%,2.1%,Not Active,0%,Not Active,159 µM,Not Active,Not Active,Not Active,3%,Not Active,Not Active,10.5%,Not Active,IC50 [5]: Not Active; inhibition (Rattus norvegicus): 0%; IC50 ([13]; read-out: IC50): 83 µM; IC50 [18]: Not Active; IC50 ([19]; read-out: IC50): 43 µM,CCCCCCCCCC[C@@]1(CO)NC[C@H](O)[C@@H](O)[C@@H]1O.Cl
1.5%,Not Active,8.6%,0.096 µM,7.9%,5.7%,9.9%,11%,Not Active,3.6%,Not Active,0.088 µM,Not Active,Not Active,Not Active,4.3%,Not Active,Not Active,1.9%,Not Active,inhibition (Bos taurus [3]): 10.3%; IC50 ([5]; read-out: IC50): 0.2 µM; inhibition (Bos taurus [7]): 15.7%; IC50 [13]: Not Active; IC50 ([18]; read-out: IC50): 1.7 µM; IC50 [19]: Not Active,CCC[C@]1(CO)NC[C@H](O)[C@@H](O)[C@@H]1O.Cl
